“Also recorded” adds a separate entry of the source.
What was measured:
C57BL/6 mice with EAE = details: C57BL/6 mouse strain, previously shown; cited from earlier work
[1] = test system: SJL/J mice induced with EAE; test: EAE model of multiple sclerosis, clinical score; format: in vivo, mouse

Row | SMILES | onset and progression of EAE (C57BL/6 mice with EAE) | clinical disability score at day 40 ([1]; treatment before onset from day 5/6, stopped day 27, vehicle 2.4) | clinical score at day 18 ([1]; treatment before onset from day 5/6, vehicle grade 2, 5-point scale) | clinical course of EAE vs vehicle control ([1]; treatment before onset of symptoms, from day 5/6 after immunization, daily for 3 weeks)
1 | CCCCC/C=C\C/C=C\C/C=C\C/C=C\CCCC(=O)C(F)(F)F [AACOCF3, arachidonyltrifluoromethyketone] | markedly reduce the onset and progression of the disease | – | – | –
2 | CCCCCCCCCCCCCCC(=O)C(=O)NCCCC(=O)O [AX006, 4-(2-oxohexadecanoyl)amino butyric acid] | – | 1.6 | 0.5 | significant during the first paralytic episode; also recorded: significant reduction of disease severity
